What was measured:
Lactoylglutathione lyase = Lactoylglutathione lyase (Homo sapiens, UniProt Q04760); experiment: Inhibitory constant against Glyoxalase I
Homo sapiens = species: Homo sapiens; experiment: Effect of COTC on GSH level in human pancreatic adenocarcinoma cell was determined at 30 ug/mL of COTC; type: functional

Chain of Lactoylglutathione lyase (Q04760 whole entry): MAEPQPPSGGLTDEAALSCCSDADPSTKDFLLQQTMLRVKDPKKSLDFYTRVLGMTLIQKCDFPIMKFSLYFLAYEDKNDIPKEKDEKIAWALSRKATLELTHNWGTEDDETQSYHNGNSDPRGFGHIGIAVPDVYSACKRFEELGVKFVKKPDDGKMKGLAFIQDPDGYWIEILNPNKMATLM

Ki (Lactoylglutathione lyase) [µM] | Structure (SMILES) | Decrease (Homo sapiens) [%]
183 | NC(CCC(=O)NC(CSCC1=C[C@@H](O)[C@@H](O)[C@@H](O)C1=O)C(=O)NCC(=O)O)C(=O)O (some centres not stated) | –
– | C/C=C/C(=O)OCC1=C[C@@H](O)[C@@H](O)[C@@H](O)C1=O | 40

Reference: ChEMBL document CHEMBL1144323, “Reversal of anticancer drug resistance by COTC based on intracellular glutathione and glyoxalase I” (Bioorg Med Chem Lett, 2005)
